The text below walks through data of patent US6943181B2, “Use of substituted gamma-lactone compounds as pharmaceutical preparations” (Grunenthal GmbH, priority 2001, dated 2005).

For this experiment, the target named is T1, nitrogen monoxide synthase (NO synthase) (Rattus norvegicus, UniProt P29476).
T1 construct: the supernatant was then decanted off and frozen in portions; from tissue; host or cells: rat cerebellum (homogenate, 20,000 g supernatant)
The experiment is described as follows: HTS-NOS assay (nitrogen monoxide synthase assay). Type of experiment: biochemical. The conditions noted are these: compound at 10 μM; enzyme preparation from rat cerebella; [3H]-arginine substrate. The source says: This assay makes it possible to determine the percentage inhibition of NO synthase by a compound of the general formula I used according to the invention by measuring NOS activity on exposure to the compound. NO synthase is here mixed under suitable conditions together with radioactively labelled arginine and the particular compound of the general formula I. After termination of the NO formation reaction at a predetermined time, the quantity of unconverted arginine is directly or indirectly determined. […] This assay may be carried out at follows: • (a) Incubation of the NO synthase with labelled arginine as the substrate in a reaction vessel, • (b) Separation of the labelled arginine from the labelled citrulline optionally arising as a product of the enzymatic reaction at a time at which the concentration of citrulline is rising, • (c) Measurement of the quantity of arginine separated in each case.
Separation is performed by means of a filter plate membrane.
Radioactive arginine is used as the substrate in this HTS-NOS assay. Depending on the type of microtitre plate (MTP), the assay volume may be selected in the range between 25 μl and 250 μl. Depending on the enzyme source used, cofactors and coenzymes are added. The batches are incubated in this microtitre plate (assay MTP) according to step (a) at room temperature and, depending on the enzyme activity used (units), lasts between 5 and 60 minutes. On completion of incubation (step (a)), the plate is placed in a cell harvester, which is equipped with an MTP which has a cation exchange membrane as a filter bottom (filter MTP). All the batches from the assay MTP are transferred into this filter MTP and suction filtered through a cation exchange filter plate, a paper filter loaded with phosphate groups. The filter MTP is then washed with buffer or water. This procedure binds the remaining substrate arginine onto the cation exchanger, while the enzymatically formed radioactive citrulline is quantitatively eluted. Once the filter MTP has been dried and scintillation liquid added, the bound arginine can be counted in the scintillation counter. Low radioactivity indicates an uninhibited NOS reaction. An inhibited enzyme reaction means that the radioactive arginine has not been converted. This means that there is a high level of radioactivity on the filter.
• Arginine, L-[2,3,4-^3H]-monohydrochloride; item no. […] The pH value of the buffer was adjusted to 7.4 at 25° C. • Washing medium: H2O Enzyme Preparation
Rat cerebella were used as the starting tissue. The animals were stunned and killed, the brain tissue, the cerebellum, was dissected out, 1 ml of enzyme preparation buffer (4° C.) was added per cerebellum, and the tissue was disrupted for 1 min at 6000 rpm in a Polytron homogeniser. The mixture was then centrifuged at 4° C. for 15 min at 20,000 g, and the supernatant was then decanted off and frozen in portions at −80° C. (discarding the precipitate).
96-Well MTPs with a well capacity of ≦250 μl were used Pipetting sequence: see table 1:
Once the pipetting operation was complete, a lid was laid on top of this MTP (assay MTP). Incubation at 25° C. (room temperature (RT)) for 5-60 min, depending on the quantity and activity of the enzyme used.
The contents of the assay MTP were then transferred with the assistance of a 96 well cell harvester into a 96 well cation exchange MTP (filter MTP) and suction filtered. A single washing with […] of H2O (from a trough) was then performed.
The plate was then dried for 1 h at 60° C. in a drying cabinet. The bottom of the filter MTP was then carefully sealed from beneath with a “back seal”. 35 μl of scintillating material were then pipetted into each well. The top of the plate was also sealed with a “top seal”. After 1 hour's waiting time, the plate was assessed on the β-counter.

In turn, `Cc1cccnc1NC1CC(C)(c2ccc(Br)cc2)OC1=O` (centres unmarked) [Example 59, 5-(4-Bromo-phenyl)-5-methyl-3-(3-methyl-pyridin-2-ylamino)-dihydro-furan-2-one] gave an inhibition at 10 µM of 45%. For `Cc1ccnc(NC2CC(C)(c3ccc(Br)cc3)OC2=O)c1` (centres unmarked) [Example 60, 5-(4-Bromo-phenyl)-5-methyl-3-(4-methyl-pyridin-2-ylamino)-dihydro-furan-2-one], the inhibition at 10 µM is 59%. As to `CCCc1nc(NC2CC(C)(c3cc(OC)cc(OC)c3)OC2=O)ncc1C(=O)OCC` (centres unmarked) [Example 61, 2-[5-(3,5-Dimethoxy-phenyl)-5-methyl-2-oxo-tetrahydro-furan-3-ylamino]-4-propyl-pyrimidine-5-carboxylic acid ethyl ester], the inhibition at 10 µM came out at 40%. Next, `COc1cc(OC)cc(C2(C)CC(Nc3n[nH]cc3Br)C(=O)O2)c1` (centres unmarked) [Example 62, 3-(4-Bromo-1H-pyrazol-3-ylamino)-5-(3,5-dimethoxy-phenyl)-5-methyl-dihydro-furan-2-one]: 40%; `COc1ccccc1C1(C)CC(Nc2n[nH]cc2Br)C(=O)O1` (centres unmarked) [Example 63, 3-(4-Bromo-1H-pyrazol-3-ylamino)-5-(2-methoxy-phenyl)-5-methyl-dihydro-furan-2-one]: 51%. Under `COc1ccc(OC)c(C2(C)CC(Nc3n[nH]cc3C#N)C(=O)O2)c1` (centres unmarked) [Example 64, 3-[5-(2,5-Dimethoxy-phenyl)-5-methyl-2-oxo-tetrahydro-furan-3-ylamino]-1H-pyrazole-4-carbonitrile] stands 42%. With `COc1ccc(OC)c(C2(C)CC(Nc3n[nH]c(SC)c3C#N)C(=O)O2)c1` (centres unmarked) [Example 65, 3-[5-(2,5-Dimethoxy-phenyl)-5-methyl-2-oxo-tetrahydro-furan-3-ylamino]-5-methylsulfanyl-1H-pyrazole-4-carbonitrile], at 10 µM the inhibition was 42%. Take `COc1ccc(OC)c(C2(C)CC(Nc3ccccn3)C(=O)O2)c1` (centres unmarked) [Example 66, 5-(2,5-Dimethoxy-phenyl)-5-methyl-3-(pyridin-2-ylamino)-dihydro-furan-2-one]: the inhibition at 10 µM came to 52%.

The compound `COc1ccccc1C1(C)CC(Nc2ccccn2)C(=O)O1` (centres unmarked) [Example 67, 5-(2-Methoxy-phenyl)-5-methyl-3-(pyridin-2-ylamino)-dihydro-furan-2-one] displayed an inhibition at 10 µM of 45%. Next, `COc1cc(OC)cc(C2(C)CC(Nc3ncc(C(F)(F)F)cc3Cl)C(=O)O2)c1` (centres unmarked) [Example 68, 3-(3-Chloro-5-trifluoromethyl-pyridin-2-ylamino)-5-(3,5-dimethoxy-phenyl)-5-methyl-dihydro-furan-2-one]: 60%; `COc1ccc(OC)c(C2(C)CC(Nc3ncc(C(F)(F)F)cc3Cl)C(=O)O2)c1` (centres unmarked) [Example 69, 3-(3-Chloro-5-trifluoromethyl-pyridin-2-ylamino)-5-(2,5-dimethoxy-phenyl)-5-methyl-dihydro-furan-2-one]: 58%; `COc1ccccc1C1(C)CC(Nc2ncc(Cl)cc2Cl)C(=O)O1` (centres unmarked) [Example 70, 3-(3,5-Dichloro-pyridin-2-ylamino)-5-(2-methoxy-phenyl)-5-methyl-dihydro-furan-2-one]: 51%.

Turning to `COc1ccc(C2(C)CC(Nc3ncc(C(F)(F)F)cc3Cl)C(=O)O2)c(OC)c1` (centres unmarked) [Example 71, 3-(3-Chloro-5-trifluoromethyl-pyridin-2-ylamino)-5-(2,4-dimethoxy-phenyl)-5-methyl-dihydro-furan-2-one], the inhibition at 10 µM was found to be 54%. Next, `COc1cccc(C2(C)CC(Nc3cc(C)cc(C)n3)C(=O)O2)c1` (centres unmarked) [Example 72, 3-(4,6-Dimethyl-pyridin-2-ylamino)-5-(3-methoxy-phenyl)-5-methyl-dihydro-furan-2-one]: 40%.

For the compound `COc1ccc(C2(C)CC(Nc3cc(C)cc(C)n3)C(=O)O2)cc1` (centres unmarked) [Example 73, 3-(4,6-Dimethyl-pyridin-2-ylamino)-5-(4-methoxy-phenyl)-5-methyl-dihydro-furan-2-one], testing at 10 µM gave an inhibition of 56%. Under `COc1ccc(C2(C)CC(Nc3cc(C)cc(C)n3)C(=O)O2)cc1OC` (centres unmarked) [Example 74, 5-(3,4-Dimethoxy-phenyl)-3-(4,6-dimethyl-pyridin-2-ylamino)-5-methyl-dihydro-furan-2-one] stands 51%.

`COc1ccc(C2(C)CC(Nc3cc(C)ccn3)C(=O)O2)cc1` (centres unmarked) [Example 75, 5-(4-Methoxy-phenyl)-5-methyl-3-(4-methyl-pyridin-2-ylamino)-dihydro-furan-2-one] had an inhibition at 10 µM of 48%.

A word on the inhibition: it is how much of the control response was suppressed. Low readings indicate a weak effect, high ones a strong effect.
